Source: patent US12486298B2, “Fucosyltransferase specific inhibition using fucose mimetics” (THE FLORIDA INTERNATIONAL UNIVERSITY BOARD OF TRUSTEES, priority 2020, dated 2025)
“Also recorded” adds a separate entry of the source.

Experiments:
Format in all cases: cell-based, human
HL60 cells = experiment: Inhibition of native cell surface fucosylation of HL60 cells (flow cytometry); conditions: 72 hours incubation, 24-, 48-, 72-hour timepoints, 6A and 26 at 64 or 256 uM
Description: (§1) For inhibition of cell surface fucosylation, a Symphony A3 (BD Biosciences) was utilized for flow cytometry and the data acquired was analyzed using FlowJo Software (Treestar). Cells were stained using antibodies specific to CD15s (CSLEX1) from BD biosciences and CD15 (LeX) from Biolegend.
The HL60 cell line (a human promyelocytic leukemia cell line) was incubated for 72 hours in RPMI 1640 medium containing 10% FBS with either 2F-Ac-Fucose (positive control), Compound 6A (64 or 256 uM), or Compound 26 (64 or 256 uM). Cells were evaluated by flow cytometry at 24-, 48-, and 72-hour timepoints of incubation for expression of CD15s (sLe^X) and CD15 (Le^X) (FIG. 10B).
(§2) In each case, expression of the relevant marker (CD15 or CD15s) was quantified as the median channel fluorescence (MFI), which was then divided by the MFI of Control cells incubated in media containing DMSO at levels equivalent to that for each inhibitor tested (i.e., Y-axis are values of (MFI of inhibitor-treated cells/MFI of DMSO-incubated Control cells)×100%).

THP-1 cells = experiment: Inhibition of native cell surface fucosylation of THP-1 cells (flow cytometry); conditions: for CD15 (Le^X) expression / CD15s (sLe^X) expression: 48 hours incubation, 24- and 48-hour timepoints
Description: as §1
The THP-1 cell line (a human monocytic leukemia cell line) was incubated for 48 hours with either Compound 31, Compound 6A, Compound 26, or with 2F-Ac-Fucose (positive control) in RPMI 1640 medium containing 10% FBS. Cells were evaluated by flow cytometry at 24- and 48-hour timepoints for expression of CD15 (Le^X), and CD15s (sLe^X) (FIG. 11).
as §2

KG1a cells = experiment: Inhibition of native cell surface fucosylation of KG1a cells (flow cytometry); conditions: 72 hours incubation, 24-, 48-, 72-hour timepoints, 64 or 256 uM
Description: as §1
Cells were evaluated at 24-, 48-, and 72-hour timepoints of incubation to assess for effects on expression of CD15s (sLe^X) by flow cytometry (FIG. 10A).
as §2

| SMILES | CD15 (Le^X) expression (HL60 cells) | CD15s (sLe^X) expression (HL60 cells) | concentration range inhibiting creation of CD15s (THP-1 cells) | concentration range inhibiting synthesis of CD15 (THP-1 cells) | CD15s (sLe^X) synthesis (THP-1 cells; 3 μM) | CD15 (Le^X) synthesis (THP-1 cells; 50 μM) | CD15s (sLe^X) synthesis (THP-1 cells; 50 μM) | CD15 (Le^X) expression (THP-1 cells) | CD15s (sLe^X) expression (THP-1 cells) | time by which CD15s inhibition is evident (THP-1 cells) | CD15s (sLe^X) expression (KG1a cells) | concentration inhibiting creation of CD15s (THP-1 cells; within 48 hours) |
| --- | --- | --- | --- | --- | --- | --- | --- | --- | --- | --- | --- | --- |
| CC(=O)OC1O[C@@H](C)[C@@H](OC(C)=O)[C@@H](OC(C)=O)[C@@H]1F (stereo partly drawn) [2F-Ac-Fucose, reference compound] | loss of both CD15s and CD15 expression | loss of both CD15s and CD15 expression | micromolar range | micromolar range | not at 3 μM concentration | inhibition of synthesis | inhibition of synthesis | inhibits synthesis of both markers | inhibits synthesis of both markers | – | – | – |
| CC(=O)OC1C(C)OC2Oc3ccc(CC(=O)NCCOCCOCCN)cc3SC2C1OC(C)=O.O=C(O)C(F)(F)F (stereo not drawn) [Compound 6A] | only inhibited the formation of CD15s | inhibited the formation of CD15s | nanomolar range; also recorded: nM range | – | – | – | – | does not inhibit CD15 expression | inhibit creation of CD15s | ≤ 24 h | inhibited CD15s expression similar to that of 2F-Ac-Fucose | – |
| COC(=O)Cc1ccc2c(c1)SC1C(O2)OC(C)C(OC(C)=O)C1OC(C)=O (stereo not drawn) [Compound 31] | – | – | – | – | – | – | – | does not inhibit CD15 expression | specificity for inhibiting the creation of CD15s; also recorded: inhibits the creation of CD15s | ≤ 48 h | – | below 50 uM |
| CCOC(=O)C1=C(C23CCC4CC(CC(C4)C2)C3)OC2OC(C)C(OC(C)=O)C(OC(C)=O)C2S1 (stereo not drawn) [Compound 26] | only inhibited the formation of CD15s | inhibited the formation of CD15s | nanomolar range; also recorded: nM range | – | – | – | – | does not inhibit CD15 expression | inhibit creation of CD15s | ≤ 24 h | inhibited CD15s expression similar to that of 2F-Ac-Fucose | – |
